Patent EP1148124A1 (priority 1999, dated 2000)

System: aryl hydrocarbon receptor
Assay: Reporter assay (No. 1), ligand responsive reporter gene (firefly luciferase, pGV-Ya-XREx5), clone of Example 2
Format: cell-based, mouse
Conditions: about 40 hours; for Amount of luminescence by firefly luciferase (from pGV-Ya-XREx5) Ratio: ratio to 0 pg/ml
Excerpt: Separately, plasmid pGV-Ya-XREx5 (ligand responsive reporter gene containing plasmid) constructed in Example 1 was digested with Bam HI. Further, plasmid pRL-TK (cell number reporter gene containing plasmid; marketed by Toyo Ink) containing the sea pansy luciferase gene used as the cell number reporter gene was digested with Bam HI, and neomycin resistance (aminoglycoside phosphotransferase) gene containing plasmid pRc/RSV (available from INVITROGEN) was digested with Hind III. These three digested plasmids, i.e., Bam HI digested pGV-Ya-XREx5 (2.8 µg), Bam HI digested pRL-TK (2.8 µg), and Hind III digested pRc/RSV (0.5 µg), were then mixed with 300 µl of αMEM medium (mixture A), while 36 µl of lipofectin (available from GIBCO-BRL) was mixed with 300 µl of αMEM medium (mixture B). After being left at room temperature for 30 minutes, mixtures A and B were combined together and left at room temperature for 10 minutes. The Hepa1clc7 cells cultured overnight as described above were then washed once with αMEM medium, to which there was added a solution prepared by adding and mixing additional 5.4 ml of αMEM medium to the above mixture (A + B). Culturing of the resulting mixture was carried out for 5 hours. The medium was then replaced with 10% serum containing αMEM medium, followed by further culturing overnight. Subsequently, the cells were scratched from the petri dishes and collected, and the collected cells were suspended in 10% serum containing αMEM medium to have the total volume of 100 ml. The resulting cell suspension was plated on 96 well plates at a ratio of 100 µl/well. After these plates were cultured overnight, a medium prepared by dissolving geneticin (hereinafter referred to as "G418") in 10% serum containing αMEM medium to have a concentration of 1.6 mg/ml was added at a ratio of 100 µl/well (G418 final concentration 800 µg/ml). Culturing was further continued for 3 weeks, during which the medium was replaced with 10% serum containing αMEM medium containing 800 µg/ml G418 at a rate of once per week. The volume of the medium was set at 200 µl/well. After said 3 weeks, cells were scratched from the wells in which colony formation had been observed, and collected (for 192 wells), and the collected cells were divided into three and independently plated on different plates, followed by continuous culturing for 4 days. To the first plate, only DMSO was added (solvent control), and to the second plate, 3-methylcholanthrene (hereinafter referred to as "3-MC") dissolved in DMSO was added so that the final concentration of 3-MC in the second plate came to 10 µM per well. The first and second plates were then cultured overnight. The third plate was further cultured as the master plate without any addition. From each well of each plate, to which DMSO or 3-MC had been added, the medium was removed, and the wells were washed twice with PBS(-) (sodium chloride, 8000 mg/l; potassium chloride, 200 mg/l; sodium monohydrogenphosphate (anhydrous), 1150 mg/l; […] dihydrogenphosphate (anhydrous), 200 mg/l; marketed by Nissui Pharmaceutical). A 5-fold diluted cell lysis buffer of PicaGene dual kit (marketed by Toyo Ink) was added to the wells in 15 µl/well, followed by leaving the plates at room temperature for 30 minutes or longer to cause cell lysis, to give cell extracts. These plates were set on a luminometer LB96P with an automatic enzyme substrate injector (available from Berthold), and PicaGene luminescence reagent II and sea pansy luminescence reagent (PicaGene dual kit, marketed by Toyo Ink) were automatically dispensed each in 50 µl, followed by continuous measurement for the amount of luminescence.
The clone screened in Example 2 was plated on 96-well plates at a ratio of 40,000 cells/well, followed by culturing overnight. […]

SMILES: Clc1cc2c(cc1Cl)Oc1cc(Cl)c(Cl)cc1O2 [TCDD, 2,3,7,8-tetrachlorodibenzo-p-dioxin]
- Amount of luminescence by firefly luciferase (from pGV-Ya-XREx5) Measured value (final conc. 0.02 pg/ml): 0.517 x 10^4
- Amount of luminescence by firefly luciferase (from pGV-Ya-XREx5) Ratio (final conc. 0.02 pg/ml): 1.1
- Amount of luminescence by firefly luciferase (from pGV-Ya-XREx5) Measured value (final conc. 0.2 pg/ml): 0.532 x 10^4
- Amount of luminescence by firefly luciferase (from pGV-Ya-XREx5) Ratio (final conc. 0.2 pg/ml): 1.1
- Amount of luminescence by firefly luciferase (from pGV-Ya-XREx5) Measured value (final conc. 2 pg/ml): 0.873 x 10^4
- Amount of luminescence by firefly luciferase (from pGV-Ya-XREx5) Ratio (final conc. 2 pg/ml): 1.8
- Amount of luminescence by firefly luciferase (from pGV-Ya-XREx5) Measured value (final conc. 20 pg/ml): 3.14 x 10^4
- Amount of luminescence by firefly luciferase (from pGV-Ya-XREx5) Ratio (final conc. 20 pg/ml): 6.5
- Amount of luminescence by firefly luciferase (from pGV-Ya-XREx5) Measured value (final conc. 200 pg/ml): 4.46 x 10^4
- Amount of luminescence by firefly luciferase (from pGV-Ya-XREx5) Ratio (final conc. 200 pg/ml): 9.2
- Amount of luminescence by firefly luciferase (from pGV-Ya-XREx5) Measured value (final conc. 2000 pg/ml): 4.17 x 10^4
- Amount of luminescence by firefly luciferase (from pGV-Ya-XREx5) Ratio (final conc. 2000 pg/ml): 8.6
- Amount of luminescence by firefly luciferase (from pGV-Ya-XREx5) Measured value (final conc. 20000 pg/ml): 4.49 x 10^4
- Amount of luminescence by firefly luciferase (from pGV-Ya-XREx5) Ratio (final conc. 20000 pg/ml): 9.2
